Assay: Release of corticosteroid from drug-containing in-situ crosslinked sodium hyaluronate hydrogel into phosphate buffer solution
Format: physicochemical
Conditions: for cumulative releasing percentage of the drug: 0.2 mL gel in 10 mL phosphate buffer solution, 37° C., 100 rpm, UV absorption of supernatant; for release of the drug from the gel (in words): summary of the release table
Description: Into the 10 mL thiolated sodium hyaluronate solution prepared in Example 1 (pH 7.0, 1.0% w/v), 0.1-10 mg one type of corticosteroid (e.g. Beclomethasone, Beclomethasone dipropionate, Budesonide; Dexamethasone, Prednisolone or Prednisone) was added. The solution was mix uniformly and immediately filled into a 1 mL syringe which was then sealed and kept at room temperature. It was observed after one week that the solution sealed in the syringe had lost fluidity to form a gel.
0.2 mL gel containing drug as described above was filled into a 15 mL plastic centrifugal tube; 10 mL phosphate buffer solution was added into the centrifugal tube which was then put in an incubator (37° C., 100 rpm); ultraviolet absorption of the drug in the supernatant was recorded at a certain time interval.
The cumulative releasing percentages of the drug at different times are as below: […]

Compound	cumulative releasing percentage of the drug (day 7)	cumulative releasing percentage of the drug (day 14)	cumulative releasing percentage of the drug (day 21)	release of the drug from the gel (in words)
CCC(=O)OCC(=O)[C@@]1(OC(=O)CC)[C@@H](C)C[C@H]2[C@@H]3CCC4=CC(=O)C=C[C@]4(C)[C@@]3(Cl)[C@@H](O)C[C@@]21C [Beclomethasone dipropionate]	<1%	<1%	<1%	release was rarely detected
C[C@H]1C[C@H]2[C@@H]3CCC4=CC(=O)C=C[C@]4(C)[C@@]3(Cl)[C@@H](O)C[C@]2(C)[C@@]1(O)C(=O)CO [Beclomethasone]	61%	82%	91%	
C[C@]12C=CC(=O)C=C1CC[C@@H]1[C@@H]2[C@@H](O)C[C@@]2(C)[C@H]1CC[C@]2(O)C(=O)CO [Prednisolone]	95%	100%	100%	released substantially completely in 7 days
C[C@]12C=CC(=O)C=C1CC[C@@H]1[C@@H]2C(=O)C[C@@]2(C)[C@H]1CC[C@]2(O)C(=O)CO [Prednisone]	82%	95%	100%	
